Data reported in patent publication US20260102407A1, “TREATMENT METHODS” (priority 2020, published 2026).

Experiments:
genes induced by IL-1β = test: RNA-seq of IL-1β-treated HMEC-1; assay type: cell-based, human; settings: 30 μM, 20 ng/ml IL-1β 4 h
Method: RNA-seq. HMEC-1 were seeded into nine 100 mm petri dishes with complete MCDB131 medium containing 10% FBS. At 70-80% confluency, cells were growth-arrested with serum-free MCDB131 medium with no hydrocortisone or EGF for 44 h. Cells were pre-treated with 30 μM BT2 in the same medium for 4 h then stimulated with 20 ng/mL IL-1β for a further 4 h. Total RNA was extracted using RNeasy Mini Kit (Qiagen, Amtsgericht Dusseldorf) with modification. Briefly, cells were washed twice with pre-cooled 1×PBS and TRIzol (Thermo Fisher Sci, Waltham, MA) was added to lyze the cells. Chloroform was added to the mixture prior to centrifugation at 13000 rpm for 15 min at 4° C. Upper aqueous layer containing total RNA was transferred to fresh microtubes and isopropanol was added and loaded into RNeasy column. Columns were washed with Buffers RW1 and RPE. Total RNA was eluted from the column using RNAse-free water. Samples were submitted to The Ramaciotti Centre for Genomics (UNSW, Australia) for TruSeq Stranded mRNA-seq preparation and sequencing by One NextSeq 500 1×75 bp High Output flowcell with data output up to 400M reads. Quality control of samples was set at >80% higher than Q30 at 1×75 bp.
RNA-seq reads were first assessed for quality using the tool FastQC (v0.11.8) (On the World-Wide-Web at: bioinformatics.babraham.ac.uk/projects/fastqc/). The tool Salmon was used for quantifying transcript abundance from RNA-seq reads (Patro, R., et al., Nat Methods 14, 417-419 (2017)). The R package DESeq2 (Love, M. I., et al., Genome Biol 15, 550 (2014)) that incorporates a method for differential analysis of count data was then used to identify differentially expressed genes across specific comparisons. The heatmap.2 function from the R package gplots v3.0.1.1 was used to generate heatmaps using counts per million (cpm) values for sets of genes of interest. The database for annotation, visualization and integrated discovery (DAVID) (Jiao, X., et al., Bioinformatics 28, 1805-1806 (2012)), a web-based online bioinformatics resource was used to identify the gene ontologies such as biological processes (BP) found to be enriched for lists of differentially expressed genes for specific comparisons.

[1] = BT2 formulation analysis by RRLC-MS/MS and LC/MS (stability); assay type: physicochemical; settings: for discrepancy in BT2 content: 6 weeks storage at 22° C.
Method: BT2 formulation analysis using RRLC-MS/MS. A rapid resolution liquid chromatography/tandem mass spectrometry (RRLC-MS/MS) method was developed under GLP by Iris Pharma using an Agilent 1200 Triple Quad G6410B to determine BT2 content in heat-treated or non-heat treated BT2 formulations at 1 week (T1 week) or 6 weeks (T6 weeks) after preparation at room temperature. The formulations were heat (H)-treated (tubes placed in a 100° C. water bath for 10 min) or non-heat treated sonicated formulations of BT2 in saline containing 0.5% Tween 80 and 0.01% DMSO). Standard curves were constructed with 8 concentrations between the lower limit of quantification (LLOQ) and the upper limit of quantification (ULOQ). Evaluations were performed on 3 preparations at the same dilution. Chromatograms were integrated using MassHunter software. For BT2 content analysis (T1 week and T6 weeks), calculation of mean, SD, CV (%) and bias (%) were performed as follows: For T1, the theoretical concentration (i.e. the weighed/formulated material supplied) was used as reference to calculate the bias (%) of each preparation containing the test sample:
Standard curves were fitted using Excel® version 2011. For each run, bias on back-calculated concentration of the standard curve and QC was determined, with back-calculated concentrations of the calibration standards being set within ±15% of the theoretical value, except for the LLOQ for which it was set within ±20%. At least 75% of the calibration standards, with a minimum of six, must have had to fulfil this criterion and the coefficient of determination (r^2) was set at ≥0.98.
BT2 formulation analysis using liquid chromatography mass spectrometry (LC/MS). DMSO (100 μl) and samples (˜50 μl) were combined along with formic acid (1 μl). These solutions (10 μl) were further diluted with H2O:CH3CN (1:1) 0.1% formic acid (90 μl) for LC/MS analysis. Samples were separated by UPLC using an HPG-3400RS UPLC pump, autosampler and column compartment system (Thermo Scientific, CA). Samples (0.1 μl) were loaded onto a Hypersil Gold aQ column (2.1×50 mm) containing 1.9μ media (Thermo Scientific). Compounds were eluted using a linear gradient of H2O:CH3CN with A containing H2O (0.1% formic acid) and B containing H2O:CH3CN (1:4, 0.1% formic acid). The gradient was: T=0 min 2% B, T=20 min 75% B, T=23 min 95% B, T=25 min, 95% B, T=25.2 min 2% B, T=30 min, 2% at 200 μl/min over 30 min. The column oven was heated to 45° C. Positive ions were generated by electrospray and the QExactive Plus mass spectrometer (Thermo Fisher, Bremen, Germany) operated in data dependent acquisition mode (DDA). The heated electrospray source (HESI) was used with a high voltage 3.8 kV applied; a vaporizer temp of 250° C.; sheath gas 20; aux gas 5 and the heated capillary set to T=290° C. […]

SMILES: CCOC(=O)Nc1ccc2c(c1)C(=O)N(CC)c1ccccc1O2 [BT2, (10-ethyl-11-oxo-10,11-dihydro-dibenzo[b,f][1,4]oxazepin-2-yl)-carbamic acid ethyl ester]
- IL-1β-inducible FosB and VCAM-1 expression (RNA-seq) (genes induced by IL-1β): suppress IL-1β-inducible FosB and VCAM-1 expression
- expression of other regulatory genes including ICAM-1, CXCL2, KLF5, Egr-1 and Fos (RNA-seq) (genes induced by IL-1β): inhibited a range of other regulatory genes
- number of the 325 IL-1β-induced genes (log FC≥2) inhibited (log FC≥2) (genes induced by IL-1β): 89
- proportion of the 325 IL-1β-induced genes inhibited (genes induced by IL-1β): 27.5%
- stability of formulation after autoclaving ([1]; autoclaved (121° C., 15 psi, 20 min), 4 months storage at 22° C., LC/MS): remained stable
- discrepancy in BT2 content ([1]; heat-treated formulation (100° C. for 10 min), RRLC-MS/MS): 1%
- degradation of stored formulation ([1]; heat-treated or not, storage up to 16 months, RRLC-MS/MS): no loss in biological efficacy or degradation
- discrepancy in BT2 content ([1]; non-heat treated formulation, RRLC-MS/MS): 0.2%
